Assay results reported in ChEMBL document CHEMBL3227947, “Quantitative structure-activity relationship of 5-(X-benzyl)-2,4-diaminopyrimidines inhibiting bovine liver dihydrofolate reductase” (J Med Chem, 1979).

biological target: T1, Dihydrofolate reductase (Bos taurus) (UniProt P00376)
T1 sequence (whole entry): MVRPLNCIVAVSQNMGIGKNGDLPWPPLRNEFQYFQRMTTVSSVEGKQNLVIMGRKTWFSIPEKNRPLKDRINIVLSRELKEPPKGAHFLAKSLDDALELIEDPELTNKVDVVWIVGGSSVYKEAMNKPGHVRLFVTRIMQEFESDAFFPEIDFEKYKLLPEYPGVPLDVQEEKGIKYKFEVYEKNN
Description: Inhibition of bovine liver dihydrofolate reductase using dihydrofolic acid as substrate

Going from `COc1cccc(Cc2cnc(N)nc2N)c1` to `Nc1ncc(Cc2cccc(C(F)(F)F)c2)c(N)n1`, the log(1/I50) rises from 5.02 to 5.53.

`Nc1ncc(Cc2ccc(OC(F)(F)F)cc2)c(N)n1` and `Cc1ccc(Cc2cnc(N)nc2N)cc1` are within 0.2 log units of each other in log(1/I50): 4.99 for the first, 4.8 for the second.

Going from `Nc1ccc(Cc2cnc(N)nc2N)cc1` to `COc1ccc(Cc2cnc(N)nc2N)cc1OC`, the log(1/I50) rises from 4.57 to 5.15.

With `CC(=O)Nc1ccc(Cc2cnc(N)nc2N)cc1[N+](=O)[O-]` the log(1/I50) was 5.16.
